Read-outs that look alike come from different tables or passages of the source.
What was measured:
[1] = test system: JumpIn-NET cells; test: Effect of NET inhibitor alone on normalized Cell Index during 1 h pretreatment (xCELLigence); assay type: cell-based, human; conditions: +dox JumpIn-NET cells; for Effect on nCI during pretreatment at highest tested concentration: 10 µM
[2] = test system: JumpIn-NET cells; test: TRACT assay (xCELLigence impedance): substrate-induced cellular response, apparent substrate potency; assay type: cell-based, human; conditions: for Decrease of apparent potency in dox-treated compared to vehicle-treated cells: +dox vs −dox JumpIn-NET cells; for EC50: Homo sapiens
[3] = doxycycline-treated (+dox) JumpIn-NET cells, 1 h pretreatment with 1 µM nisoxetine, read-out: Apparent potency pEC50 ± SEM (converted)
[4] = vehicle-treated (−dox) JumpIn-NET cells, no nisoxetine pretreatment, net AUC first 30 min, read-out: Apparent potency pEC50 ± SEM (converted)

Structure (SMILES) | Effect on nCI during pretreatment at highest tested concentration [1] | Decrease of apparent potency in dox-treated compared to vehicle-treated cells [2] | EC50 [2, 3] | EC50 [2, 4] | also measured
CNCC[C@@H](Oc1ccccc1C)c1ccccc1.Cl [Atomoxetine, atomoxetine hydrochloride] | transient increase in nCI |  |  |  | 
CC(NC(C)(C)C)C(=O)c1cccc(Cl)c1.Cl (centres unmarked) [Bupropion, bupropion hydrochloride] | transient increase in nCI |  |  |  | 
Cl.NCCc1ccc(O)c(O)c1 [DA, dopamine hydrochloride] |  | twofold lower | 39800 nM | 7940 nM | 
CNC[C@H](O)c1ccc(O)c(O)c1.O=C(O)C(O)C(O)C(=O)O [EP, (−)-epinephrine (+)-bitartrate salt] |  | decreased tenfold |  |  | Basal response in vehicle-pretreated cells, higher than that of NE ([2]; 1 µM substrate (EC20), +dox cells, no inhibitor): approximately 60%; EC50 ([2]; read-out: Apparent potency pEC50 ± SEM, doxycycline-treated (+dox) JumpIn-NET cells, 1 h pretreatment with 1 µM nisoxetine (converted)): 501 nM; EC50 ([2]; read-out: Apparent potency pEC50 ± SEM, doxycycline-treated (+dox) JumpIn-NET cells, no nisoxetine pretreatment (converted)): 3980 nM; EC50 ([2]; read-out: Apparent potency pEC50 ± SEM, vehicle-treated (−dox) JumpIn-NET cells, no nisoxetine pretreatment (converted), net AUC first 30 min): 398 nM
CNCCC(Oc1ccccc1OC)c1ccccc1.Cl (centres unmarked) [Nisoxetine, Nisoxetine hydrochloride] | transient increase in nCI |  |  |  | Effect on nCI during the 1 h pretreatment ([1]; 1 µM): did not affect the nCI

— article PMC8192900, “Label-free high-throughput screening assay for the identification of norepinephrine transporter (NET/SLC6A2) inhibitors” (Scientific Reports, 2021)
